According to patent US7435837B2, “Dihydrobenzofuranyl alkanamine derivatives and methods for using same” (Wyeth, priority 2003, dated 2008):

Legend:
[1] = molecular target: T1, human 5-hydroxytryptamine-2C (h5-HT2C) receptor (Homo sapiens, UniProt P28335); assay: [125I]DOI binding to membranes of CHO cells expressing the human 5-HT2C receptor; details: [125I]DOI radioligand, CHO cell membranes, room temperature 60 min; read-out: 5-HT2C Affinity Ki
T1 construct: expressed in transfected cells; host or cells: CHO (Chinese Hamster Ovary) cells; membranes
T1 sequence (P28335 33-458): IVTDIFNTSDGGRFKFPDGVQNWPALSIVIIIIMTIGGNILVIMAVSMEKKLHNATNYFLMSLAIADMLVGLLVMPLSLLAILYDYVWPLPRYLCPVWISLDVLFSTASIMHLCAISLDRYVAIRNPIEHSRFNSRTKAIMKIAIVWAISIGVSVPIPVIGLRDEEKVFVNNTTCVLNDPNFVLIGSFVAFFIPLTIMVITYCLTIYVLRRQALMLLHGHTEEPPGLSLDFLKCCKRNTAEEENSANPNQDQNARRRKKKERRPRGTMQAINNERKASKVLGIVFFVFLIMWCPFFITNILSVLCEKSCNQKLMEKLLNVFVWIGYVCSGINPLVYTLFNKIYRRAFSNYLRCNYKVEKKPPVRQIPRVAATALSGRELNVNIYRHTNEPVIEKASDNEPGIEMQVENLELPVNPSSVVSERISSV

human 5-HT2C receptor = molecular target: T2, human 5-HT2C receptor (Homo sapiens, UniProt P28335); assay: 5-HT2C receptor-stimulated calcium mobilization (FLIPR) in CHO cells; assay type: cell-based; details: for EC50: calcium mobilization, CHO cells stably expressing human 5-HT2C, read-out: 5-HT2C Function EC50; for 5-HT2C Function Emax (%) / Emax: percentage of the response observed with a maximally effective concentration of 5-HT; for Emax: CHO, read-out: 5-HT2C Function Emax (%);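 on all read-outs here: Fluo-3-AM fluorescence read on FLIPR every 1 s, agonist added after 10 baseline reads, response taken as peak minus lowest raw fluorescence count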
T2 sequence (P28335 33-458): T1 sequence (P28335 33-458)

NCC1Cc2cccc(-c3cccc(F)c3)c2O1 (single isomer, unassigned; (+)) [Example 131, (+)-1-[7-(3-fluorophenyl)-2,3-dihydro-1-benzofuran-2-yl]methanamine] was tested, and the Ki [1] was 1.5 nM, the EC50 (human 5-HT2C receptor) was 34 nM and the “5-HT2C Function Emax (%)” value (human 5-HT2C receptor) was 90%.

COc1cccc(-c2cccc3c2OC(CN)C3)c1 (single isomer, unassigned; (+)) [Example 133, (+)-1-[7-(3-methoxyphenyl)-2,3-dihydro-1-benzofuran-2-yl]methanamine] showed a Ki [1] of 3.6 nM, an Emax (human 5-HT2C receptor) of 80% and an EC50 (human 5-HT2C receptor) of 66 nM.

For NCC1Cc2cccc(-c3ccc(C(F)(F)F)cc3)c2O1 (single isomer, unassigned; (+)) [Example 137, (+)-1-{7-[4-(trifluoromethyl)phenyl]-2,3-dihydro-1-benzofuran-2-yl}methanamine], the Ki [1] was 1.2 nM, the EC50 (human 5-HT2C receptor) was 473 nM and the “5-HT2C Function Emax (%)” value (human 5-HT2C receptor) was 90%.

For NCC1Cc2cccc(-c3c(Cl)cccc3Cl)c2O1 (single isomer, unassigned; (+)) [Example 142, (+)-1-[7-(2,6-dichlorophenyl)-2,3-dihydro-1-benzofuran-2-yl]methanamine], the Ki [1] was 1.6 nM, the EC50 (human 5-HT2C receptor) was 101 nM and the “5-HT2C Function Emax (%)” value (human 5-HT2C receptor) was 80%.

Molecule NCC1Cc2cccc(-c3ccc(F)cc3F)c2O1 (single isomer, unassigned; (+)) [Example 147, (+)-1-[7-(2,4-difluorophenyl)-2,3-dihydro-1-benzofuran-2-yl]methanamine] has a Ki [1] of 1.3 nM, an Emax (human 5-HT2C receptor) of 90% and an EC50 (human 5-HT2C receptor) of 7 nM.

For NCC1Cc2cccc(-c3ccc(Cl)cc3Cl)c2O1 (single isomer, unassigned; (+)) [Example 150, (+)-1-[7-(2,4-dichlorophenyl)-2,3-dihydro-1-benzofuran-2-yl]methanamine], the Ki [1] was 4.1 nM, the EC50 (human 5-HT2C receptor) was 74 nM and the “5-HT2C Function Emax (%)” value (human 5-HT2C receptor) was 100%.

In the case of NCC1Cc2cc(F)cc(-c3ccccc3C(F)(F)F)c2O1 (single isomer, unassigned; (+)) [Example 152, (+)-1-{5-fluoro-7-[2-(trifluoromethyl)phenyl]-2,3-dihydro-1-benzofuran-2-yl}methanamine], the Ki [1] is reported as 6.6 nM, the EC50 (human 5-HT2C receptor) is reported as 202 nM and the “5-HT2C Function Emax (%)” value (human 5-HT2C receptor) is reported as 70%.

In the case of Cc1cc(Cl)ccc1-c1cccc2c1OC(CN)C2 (single isomer, unassigned; (+)) [Example 158, (+)-{[7-(4-chloro-2-methylphenyl)-2,3-dihydro-1-benzofuran-2-yl]methyl}amine], the Ki [1] is reported as 1.1 nM, the Emax (human 5-HT2C receptor) is reported as 100% and the EC50 (human 5-HT2C receptor) is reported as 42 nM.

With NCC1Cc2cccc(-c3cc(Cl)ccc3Cl)c2O1 (single isomer, unassigned; (+)) [Example 164, (+)-{[7-(2,5-dichlorophenyl)-2,3-dihydro-1-benzofuran-2-yl]methyl}amine] the Ki [1] was 0.28 nM, the EC50 (human 5-HT2C receptor) was 0.3 nM and the “5-HT2C Function Emax (%)” value (human 5-HT2C receptor) was 100%.

NCC1Cc2cccc(-c3cccnc3)c2O1 (single isomer, unassigned; (+)) [Example 171, (+)-{[7-pyridin-3-yl-2,3-dihydro-1-benzofuran-2-yl]methyl}amine] was tested, and the Ki [1] was 0.88 nM, the Emax (human 5-HT2C receptor) was 100% and the EC50 (human 5-HT2C receptor) was 0.7 nM.

NCC1Cc2cc(F)cc(-c3cccnc3)c2O1 (single isomer, unassigned; (+)) [Example 208, (+)-{[5-fluoro-7-pyridin-3-yl-2,3-dihydro-1-benzofuran-2-yl]methyl}amine] was tested, and the Ki [1] was 1.9 nM, the EC50 (human 5-HT2C receptor) was 0.36 nM and the “5-HT2C Function Emax (%)” value (human 5-HT2C receptor) was 100%.

With NCC1Cc2cc(Cl)cc(-c3ccc(Cl)cc3Cl)c2O1 (single isomer, unassigned; (+)) [Example 253, (+)-{[5-chloro-7-(2,4-dichlorophenyl)-2,3-dihydro-1-benzofuran-2-yl]methyl}amine] the Ki [1] was 8.6 nM, the EC50 (human 5-HT2C receptor) was 251 nM and the “5-HT2C Function Emax (%)” value (human 5-HT2C receptor) was 90%.

In the case of Cc1cc2c(c(-c3ccc(Cl)cc3Cl)c1)OC(CN)C2 (single isomer, unassigned; (+)) [Example 299, (+)-{[7-(2,4-dichlorophenyl)-5-methyl-2,3-dihydro-1-benzofuran-2-yl]methyl}amine], the Ki [1] is reported as 0.19 nM, the EC50 (human 5-HT2C receptor) is reported as 0.1 nM and the “5-HT2C Function Emax (%)” value (human 5-HT2C receptor) is reported as 100%.

COc1cc2c(c(-c3cc(Cl)ccc3Cl)c1)OC(CN)C2 (single isomer, unassigned; (+)) [Example 368, (+)-{[7-(2,5-dichlorophenyl)-5-methoxy-2,3-dihydro-1-benzofuran-2-yl]methyl}amine] was tested, and the Ki [1] was 1.4 nM, the Emax (human 5-HT2C receptor) was 90% and the EC50 (human 5-HT2C receptor) was 4 nM.

With CNCC1Cc2cccc(-c3ccccc3C)c2O1 (single isomer, unassigned; (+)) [Example 408, (+)-N-methyl-1-[7-(2-methylphenyl)-2,3-dihydro-1-benzofuran-2-yl]methanamine] the Ki [1] was 0.46 nM, the EC50 (human 5-HT2C receptor) was 6 nM and the “5-HT2C Function Emax (%)” value (human 5-HT2C receptor) was 90%.

With CNCC1Cc2cccc(-c3ccccc3Cl)c2O1 (single isomer, unassigned; (+)) [Example 410, (+)-N-methyl-1-[7-(2-chlorophenyl)-2,3-dihydro-1-benzofuran-2-yl]methanamine] the Ki [1] was 0.08 nM, the Emax (human 5-HT2C receptor) was 90% and the EC50 (human 5-HT2C receptor) was 0.05 nM.

With CNCC1Cc2cc(F)cc(-c3ccccc3C)c2O1 (single isomer, unassigned; (+)) [Example 442, (+)-{[5-fluoro-7-(2-methylphenyl)-2,3-dihydro-1-benzofuran-2-yl]methyl}methylamine] the Ki [1] was 0.2 nM, the EC50 (human 5-HT2C receptor) was 6 nM and the “5-HT2C Function Emax (%)” value (human 5-HT2C receptor) was 90%.

Work on CNCC1Cc2cc(F)cc(-c3cc(Cl)ccc3Cl)c2O1 (single isomer, unassigned; (+)) [Example 450, (+)-{[5-fluoro-7-(2,5-dichlorophenyl)-2,3-dihydro-1-benzofuran-2-yl]methyl}methylamine] yielded a Ki [1] of 0.27 nM, an Emax (human 5-HT2C receptor) of 100% and an EC50 (human 5-HT2C receptor) of 0.8 nM.

With CNCC1Cc2cc(C)cc(-c3cc(Cl)ccc3Cl)c2O1 (single isomer, unassigned; (+)) [Example 487, (+)-{[7-(2,5-dichlorophenyl)-5-methyl-2,3-dihydro-1-benzofuran-2-yl]methyl}methylamine] the Ki [1] was 0.06 nM, the Emax (human 5-HT2C receptor) was 100% and the EC50 (human 5-HT2C receptor) was 3 nM.

NCC1Cc2cc(F)cc(-c3c(Cl)cccc3Cl)c2O1 (single isomer, unassigned; (+)) [Example 551, (+)-{[7-(2,6 dichlorophenyl)-5-fluoro-2,3-dihydro-1-benzofuran-2-yl]methyl}amine] showed a Ki [1] of 0.55 nM, an Emax (human 5-HT2C receptor) of 90% and an EC50 (human 5-HT2C receptor) of 17 nM.

CNCC1Cc2cc(OC)cc(-c3c(C)cccc3C)c2O1 (single isomer, unassigned; (+)) [Example 561, (+)-{[7-(2,6-dimethylphenyl)-5-methoxy-2,3-dihydro-1-benzofuran-2-yl]methyl}methylamine] was tested, and the Ki [1] was 2.7 nM, the EC50 (human 5-HT2C receptor) was 21 nM and the “5-HT2C Function Emax (%)” value (human 5-HT2C receptor) was 80%.

Molecule CNCC1Cc2cc(Cl)cc(-c3cc(Cl)ccc3Cl)c2O1 (single isomer, unassigned; (+)) [Example 562, (+)-{[5-chloro-7-(2,5-dichlorophenyl)-2,3-dihydro-1-benzofuran-2-yl]methyl}methylamine] has a Ki [1] of 0.48 nM, an Emax (human 5-HT2C receptor) of 90% and an EC50 (human 5-HT2C receptor) of 2 nM.

With NCC1Cc2cccc(C3CCCC3)c2O1 (single isomer, unassigned; (-)) [Example 9, (−)-(7-cyclopentyl-2,3-dihydro-1-benzofuran-2-yl)methylamine] the Ki [1] was 10 nM, the EC50 (human 5-HT2C receptor) was 194 nM and the “5-HT2C Function Emax (%)” value (human 5-HT2C receptor) was 85%.

For NCC1Cc2cccc(Cc3ccccc3)c2O1 (single isomer, unassigned; (-)) [Example 17, (−)-1-(7-benzyl-2,3-dihydro-1-benzofuran-2-yl)methanamine], the Ki [1] was 66 nM, the EC50 (human 5-HT2C receptor) was 100 nM and the “5-HT2C Function Emax (%)” value (human 5-HT2C receptor) was 70%.

For CC(C)c1cccc2c1OC(CN)C2 (single isomer, unassigned; (-)) [Example 19, (−)-(7-isopropyl-2,3-dihydro-1-benzofuran-2-yl)methylamine], the Ki [1] was 2 nM, the EC50 (human 5-HT2C receptor) was 66 nM and the “5-HT2C Function Emax (%)” value (human 5-HT2C receptor) was 100%.

With Cc1c(Cl)cc(C(C)C)c2c1CC(CN)O2 (single isomer, unassigned; (-)) [Example 22, (−)-1-(5-chloro-7-isopropyl-4-methyl-2,3-dihydro-1-benzofuran-2-yl)methanamine] the Ki [1] was 5 nM, the Emax (human 5-HT2C receptor) was 90% and the EC50 (human 5-HT2C receptor) was 25 nM.

For CC(C)(C)c1cccc2c1OC(CN)C2 (single isomer, unassigned; (-)) [Example 25, (−)-1-(7-tert-butyl-2,3-dihydro-1-benzofuran-2-yl)methanamine], the Ki [1] was 18 nM, the Emax (human 5-HT2C receptor) was 90% and the EC50 (human 5-HT2C receptor) was 10 nM.

CC(C)(C)c1cc(Cl)cc2c1OC(CN)C2 (single isomer, unassigned; (-)) [Example 28, (−)-1-(7-tert-butyl-5-chloro-2,3-dihydro-1-benzofuran-2-yl)methanamine] showed a Ki [1] of 16 nM, an Emax (human 5-HT2C receptor) of 90% and an EC50 (human 5-HT2C receptor) of 77 nM.

Molecule NCC1Cc2cccc(-c3ccccc3)c2O1 (single isomer, unassigned; (-)) [Example 38, (−)-1-(7-phenyl-2,3-dihydro-1-benzofuran-2-yl)methanamine] has a Ki [1] of 56 nM, an Emax (human 5-HT2C receptor) of 100% and an EC50 (human 5-HT2C receptor) of 540 nM.
